Reference: patent US7138361B2, “Herbicidal heterocycles” (E. I. du Pont de Nemours and Company, priority 2000, dated 2006)

Tests used:
Format in all cases: in vivo
[1] = system: crabgrass (Digitaria sanguinalis); assay: Test B preemergence
In short: (§1)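 Seeds were planted and sprayed preemergence with test chemical in a non-phytotoxic solvent mixture containing surfactant; postemergence plants (2 to 18 cm, 1- to 4-leaf stage) received the same formulation. Greenhouse hold 13 to 15 days, then visual rating versus untreated controls on a 0–100 scale (0 no effect, 100 complete control).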

[2] = system: lambsquarters (Chenopodium album); assay: Test B preemergence
In short: as §1

[3] = system: cocklebur (Xanthium strumarium); assay: Test B preemergence
In short: as §1

[4] = system: barnyardgrass (Echinochloa crus-galli); assay: Test B preemergence
In short: as §1

rice (Oryza saliva) = assay: Test B preemergence
In short: as §1

[5] = system: giant foxtail (Setaria faberii); assay: Test B preemergence
In short: as §1

[6] = system: pigweed (Amaranthus retroflexus); assay: Test B preemergence
In short: as §1

[7] = system: Surinam grass (Brachiaria decumbens); assay: Test B preemergence
In short: as §1

[8] = system: morning glory (Ipomoea hederacea); assay: Test B preemergence
In short: as §1

[9] = system: velvetleaf (Abutilon theophrasti); assay: Test B preemergence
In short: as §1

corn (Zea mays) = assay: Test B preemergence
In short: as §1

Sunflower = assay: Test C preemergence; conditions: Rate 250 g/ha, scale 0 to 100, 0 no effect, 100 complete control
[10] = system: crabgrass (Digitaria sanguinalis); assay: Test C preemergence
From the text: (§2) Seeds of plant species selected from bermudagrass (Cynodon dactylon), Surinam grass (Brachiaria decumbens), cocklebur (Xanthium strumarium), corn (Zea mays), crabgrass (Digitaria sanguinalis), woolly cupgrass (Eriochloa villosa), giant foxtail (Setaria faberii), goosegrass (Eleusine indica), johnsongrass (Sorghum halepense), kochia (Kochia scoparia), lambsquarters (Chenopodium album), morningglory (Ipomoea hederacea), yellow nutsedge (Cyperus esculentus), pigweed (Amaranthus retroflexus), common ragweed (Ambrosia elatior), soybean (Glycine max) and velvetleaf (Abutilon theophrasti) were planted and treated preemergence with test chemicals formulated in a non-phytotoxic solvent mixture which included a surfactant.
(§3) At the same time, plants selected from these crop and weed species and also winter barley (Hordeum vulgare), blackgrass (Alopecurus myosuroides), canary grass (Phalaris minor), chickweed (Stellaria media), downy brome (Bromus tectorum), green foxtail (Setaria viridis), Italian ryegrass (Lolium multiflorum), wheat (Triticum aestivum), wild oat (Avena fatua) and windgrass (Apera spica-venti) were treated with postemergence applications of some of the test chemicals formulated in the same manner. Plants ranged in height from 2 to 18 cm (1- to 4-leaf stage) for postemergence treatments. Plant species in the flooded paddy test consisted of rice (Oryza saliva), smallflower flatsedge (Cyperus difformis), duck salad (Heteranthera limosa) and barnyardgrass (Echinochloa crus-galli) grown to the 2-leaf stage for testing. Treated plants and controls were maintained in a greenhouse for 12 to 14 days, after which time all species were compared to controls and visually evaluated. Plant response ratings, summarized in Table C, are based on a scale of 0 to 100 where 0 is no effect and 100 is complete control. A dash (-) response means no test result.

soybean (Glycine max) = assay: Test C preemergence
From the text: as §2, §3

[11] = system: woolly cupgrass (Eriochloa villosa); assay: Test C preemergence
From the text: as §2, §3

[12] = system: cocklebur (Xanthium strumarium); assay: Test C preemergence
From the text: as §2, §3

[13] = system: giant foxtail (Setaria faberii); assay: Test C preemergence
From the text: as §2, §3

[14] = system: pigweed (Amaranthus retroflexus); assay: Test C preemergence
From the text: as §2, §3

[15] = system: Surinam grass (Brachiaria decumbens); assay: Test C preemergence
From the text: as §2, §3

[16] = system: bermudagrass (Cynodon dactylon); assay: Test C preemergence
From the text: as §2, §3

kochia (Kochia scoparia) = assay: Test C preemergence
From the text: as §2, §3

[17] = Preemergence, Rate 500 g/ha, scale 0 to 100, 0 no effect, 100 complete control
[18] = preemergence, Rate 125 g/ha, scale of 0 to 100 where 0 is no effect and 100 is complete control, 13 to 15 days
[19] = Rate 125 g/ha, scale 0 to 100, 0 no effect, 100 complete control
[20] = preemergence, Rate 31 g/ha, scale 0 to 100
[21] = preemergence, Rate 62 g/ha, scale 0 to 100
[22] = preemergence, Rate 250 g/ha, scale 0 to 100, 0 no effect, 100 complete control

Question: Which “Plant response rating, Crabgrass” value [1, 17] does the source give for `CCOc1cc(N2CCC(n3ccc(C(C)(C)C)n3)C2=O)ccc1C` (centres unmarked) [Compound 106] here?
Answer: 100

Question: What about the “Plant response rating, Crabgrass” value [1, 18] of the same molecule?
Answer: 100

Question: And the “Plant response rating, Lambsquarters” value [2, 17]?
Answer: 100

Question: And the “Plant response rating, Lambsquarters” value [2, 18]?
Answer: 100

Question: And the “Plant response rating, Cocklebur” value [3, 17]?
Answer: 100

Question: What about the “Plant response rating, Cocklebur” value [3, 18] of the same molecule?
Answer: 30

Question: What about the “Plant response rating, Barnyardgrass” value [4, 17] of the same molecule?
Answer: 100

Question: What about the “Plant response rating, Barnyardgrass” value [4, 18] of the same molecule?
Answer: 90

Question: What about the “Plant response rating, Rice” value (rice (Oryza saliva); [17]) of the same molecule?
Answer: 100

Question: What about the “Plant response rating, Rice” value (rice (Oryza saliva); [18]) of the same molecule?
Answer: 0

Question: And the “Plant response rating, Foxtail, Giant” value [5, 17]?
Answer: 60

Question: And the “Plant response rating, Foxtail, Giant” value [5, 18]?
Answer: 40

Question: What about the “Plant response rating, Pigweed” value [6, 17] of the same molecule?
Answer: 100

Question: And the “Plant response rating, Pigweed” value [6, 18]?
Answer: 100

Question: What about the “Plant response rating, Surinam grass” value [7, 17] of the same molecule?
Answer: 100

Question: What about the “Plant response rating, Surinam grass” value [7, 18] of the same molecule?
Answer: 100

Question: And the “Plant response rating, Morningglory” value [8, 17]?
Answer: 100

Question: And the “Plant response rating, Morningglory” value [8, 18]?
Answer: 100

Question: What about the “Plant response rating, Velvetleaf” value [9, 17] of the same molecule?
Answer: 100

Question: What about the “Plant response rating, Velvetleaf” value [9, 18] of the same molecule?
Answer: 0

Question: And the “Plant response rating, Corn” value (corn (Zea mays); [17])?
Answer: 30

Question: And the “Plant response rating, Corn” value (corn (Zea mays); [18])?
Answer: 30

Question: What about the “Plant response rating, Sunflower” value (Sunflower) of the same molecule?
Answer: 90

Question: And the “Plant response rating, Crabgrass” value [10, 19]?
Answer: 100

Question: And the “Plant response rating, Crabgrass” value [10, 20]?
Answer: 100

Question: And the “Plant response rating, Crabgrass” value [10, 21]?
Answer: 100

Question: What about the “Plant response rating, Crabgrass” value [10, 22] of the same molecule?
Answer: 100

Question: What about the “Plant response rating, Soybean” value (soybean (Glycine max); [19]) of the same molecule?
Answer: 100

Question: What about the “Plant response rating, Soybean” value (soybean (Glycine max); [20]) of the same molecule?
Answer: 80

Question: What about the “Plant response rating, Soybean” value (soybean (Glycine max); [21]) of the same molecule?
Answer: 100

Question: And the “Plant response rating, Soybean” value (soybean (Glycine max); [22])?
Answer: 100

Question: And the “Plant response rating, Cupgrass, Woolly” value [11, 19]?
Answer: 100

Question: What about the “Plant response rating, Cupgrass, Woolly” value [11, 20] of the same molecule?
Answer: 60

Question: What about the “Plant response rating, Cupgrass, Woolly” value [11, 21] of the same molecule?
Answer: 100

Question: What about the “Plant response rating, Cupgrass, Woolly” value [11, 22] of the same molecule?
Answer: 100

Question: What about the “Plant response rating, Cocklebur” value [12, 19] of the same molecule?
Answer: 90

Question: And the “Plant response rating, Cocklebur” value [12, 20]?
Answer: 70

Question: And the “Plant response rating, Cocklebur” value [12, 21]?
Answer: 90

Question: What about the “Plant response rating, Cocklebur” value [12, 22] of the same molecule?
Answer: 100

Question: And the “Plant response rating, Foxtail, Giant” value [13, 19]?
Answer: 40

Question: What about the “Plant response rating, Foxtail, Giant” value [13, 20] of the same molecule?
Answer: 0

Question: What about the “Plant response rating, Foxtail, Giant” value [13, 21] of the same molecule?
Answer: 0

Question: And the “Plant response rating, Foxtail, Giant” value [13, 22]?
Answer: 100

Question: What about the “Plant response rating, Pigweed” value [14, 19] of the same molecule?
Answer: 100

Question: What about the “Plant response rating, Pigweed” value [14, 20] of the same molecule?
Answer: 70

Question: What about the “Plant response rating, Pigweed” value [14, 21] of the same molecule?
Answer: 100

Question: And the “Plant response rating, Pigweed” value [14, 22]?
Answer: 90

Question: And the “Plant response rating, Surinam grass” value [15, 19]?
Answer: 90

Question: What about the “Plant response rating, Surinam grass” value [15, 20] of the same molecule?
Answer: 30

Question: And the “Plant response rating, Surinam grass” value [15, 21]?
Answer: 90

Question: And the “Plant response rating, Surinam grass” value [15, 22]?
Answer: 100

Question: What about the “Plant response rating, Bermudagrass” value [16, 19] of the same molecule?
Answer: 100

Question: What about the “Plant response rating, Bermudagrass” value [16, 20] of the same molecule?
Answer: 100

Question: And the “Plant response rating, Bermudagrass” value [16, 21]?
Answer: 100

Question: And the “Plant response rating, Bermudagrass” value [16, 22]?
Answer: 100

Question: What about the “Plant response rating, Kochia” value (kochia (Kochia scoparia); [19]) of the same molecule?
Answer: 100

Question: And the “Plant response rating, Kochia” value (kochia (Kochia scoparia); [20])?
Answer: 100

Question: What about the “Plant response rating, Kochia” value (kochia (Kochia scoparia); [21]) of the same molecule?
Answer: 100

Question: What about the “Plant response rating, Kochia” value (kochia (Kochia scoparia); [22]) of the same molecule?
Answer: 100
